Experimental data taken from patent US8946439B2, “Amide compounds, compositions and uses thereof” (Evotec AG, priority 2008, dated 2015).
Read-outs that look alike come from different tables or passages of the source.

Assays:
hP2X2/3H = molecular target: T1, hP2X2/3H (Homo sapiens, UniProt P56373+Q9UBL9); test: Calcium uptake assay (P2X antagonist assay), P2X2/3 heteromer; assay type: cell-based; settings: hP2X2/3H
T1 construct: expressed in transfected cells; host or cells: e.g. HEK293 or 1321N1
T1 sequence (Q9UBL9 1-471): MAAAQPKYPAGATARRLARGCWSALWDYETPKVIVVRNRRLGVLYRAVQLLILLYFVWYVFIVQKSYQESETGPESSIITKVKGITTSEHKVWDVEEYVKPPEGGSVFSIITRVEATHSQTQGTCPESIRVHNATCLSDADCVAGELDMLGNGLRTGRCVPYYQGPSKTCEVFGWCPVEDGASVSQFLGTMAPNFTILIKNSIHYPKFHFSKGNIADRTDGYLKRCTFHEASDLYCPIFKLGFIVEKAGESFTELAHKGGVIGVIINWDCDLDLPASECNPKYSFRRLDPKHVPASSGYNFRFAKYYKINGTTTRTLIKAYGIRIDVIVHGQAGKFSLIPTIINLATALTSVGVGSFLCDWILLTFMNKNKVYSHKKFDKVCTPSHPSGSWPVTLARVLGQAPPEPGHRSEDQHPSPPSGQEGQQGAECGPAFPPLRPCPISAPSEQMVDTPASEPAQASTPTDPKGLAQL
T1 sequence (P56373 1-397): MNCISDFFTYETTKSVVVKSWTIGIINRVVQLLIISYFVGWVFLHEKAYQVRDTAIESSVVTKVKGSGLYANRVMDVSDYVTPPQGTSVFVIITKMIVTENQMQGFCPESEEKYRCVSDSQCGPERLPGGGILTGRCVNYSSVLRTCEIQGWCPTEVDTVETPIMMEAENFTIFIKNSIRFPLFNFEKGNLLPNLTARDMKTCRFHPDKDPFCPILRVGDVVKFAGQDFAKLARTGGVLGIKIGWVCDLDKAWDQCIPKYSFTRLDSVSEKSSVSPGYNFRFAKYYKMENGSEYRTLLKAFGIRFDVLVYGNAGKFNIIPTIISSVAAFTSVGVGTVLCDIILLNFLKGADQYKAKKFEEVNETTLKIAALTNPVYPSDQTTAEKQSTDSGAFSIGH
Source text: (§1) The human P2X2/3 chimera clone is created as described by Neelands et al, and then cloned into an expression vector as above. Receptors are expressed in cells (e.g., HEK293 or 1321N1 (obtained from the ECACC)) via transient transfection using standard lipid mediated transfection, or by creation of stable transfectants for each receptor. For expression of the P2X2/3 heteromeric receptor, the P2X3 expression vector is stably transfected into a cell line already stably expressing P2X2. P2X2/3 heteromer function is isolated using pharmacological methods. Cell lines are maintained in DMEM+5% Glutamax, the appropriate level of selective antibiotic, and 10% heat inactivated FBS.
(§2) Functional activity of compounds at the P2X receptor is determined by measuring their ability to inhibit agonist-induced calcium influx. Compounds are tested for antagonist activity against the P2X2/3 chimera, the P2X3 homomer, or the P2X2/3 heteromer. At the start of each screening day, the agonist EC50 is determined. Compound % inhibition or IC50s are subsequently determined using a predetermined agonist concentration (EC50-90 depending on cell line) as a stimulus. The agonists used are αβMeATP, ATP, or other ATP analogs. Compounds may be tested at concentrations ranging from 1 pM to 10 μM.
(§3) To test for antagonist activity, cells expressing the appropriate receptor are seeded onto 96 or 384 well plates 18-24 hours prior to assay. […] Plates are incubated at 37° C. and then equilibrated at room temperature. Antagonism of agonist-induced calcium influx is measured using a fluorescent imaging plate reader (e.g. FLIPR^TETRA, Molecular Devices, Sunnyvale, Calif.). The assay comprises two stages: a pre-treatment phase followed by a treatment phase. Compounds may be tested as follows: For the pre-treatment phase, 50 μL of 3× concentration of test compound in HBSS is added to cells containing […], of dye loading media to achieve a final concentration of 1× test compound. For the treatment phase, at a set interval after pre-treatment (1-30 minutes), 50 μL of 1× test compound plus 4× agonist solution is added, resulting in a final concentration of 1× compound and 1× agonist. […] Responses are measured as (peak fluorescence after agonist addition) minus (baseline fluorescence prior to treatment). Percent inhibition is calculated as follows:
(§4) [formula] IC50 values are determined by analyzing dose response data in a 4 parameter logistic fit using GraphPad Prizm.

hP2X3 = molecular target: T2, hP2X3 (Homo sapiens, UniProt P56373); test: Calcium uptake assay (P2X antagonist assay), P2X3 homomer; assay type: cell-based; settings: hP2X3
T2 construct: expressed in transfected cells; host or cells: e.g. HEK293 or 1321N1
T2 sequence (P56373 1-397): T1 sequence (P56373 1-397)
Source text: as §1, §2, §3, §4

[1] = calcium uptake assay, read-out: IC50 hP2X2/3H (nM), Ca Influx
[2] = calcium uptake assay, read-out: IC50 hP2X3 (nM), Ca Influx
[3] = Ca influx (calcium uptake assay), read-out: IC50 hP2X2/3H
[4] = Ca influx (calcium uptake assay), read-out: IC50 hP2X3

IC50 (hP2X2/3H; [1]) [nM] | IC50 (hP2X3; [2]) [nM] | IC50 (hP2X2/3H; [3]) [nM] | IC50 (hP2X3; [4]) [nM] | SMILES
100 to 500 | < 100 |  |  | Cc1ccc(-c2cc(C(=O)NCc3ccc(C)nc3)cc(C(=O)N(C)c3ccncc3)c2)cc1 [Compound 163, N3,4′-Dimethyl-N5-((6-methylpyridin-3-yl)methyl)-N3-(pyridin-4-yl)biphenyl-3,5-dicarboxamide]
> 1000 | > 1000 |  |  | Cc1ccc(CNC(=O)c2cc(-c3ccc(Cl)c(Cl)c3)cc(S(C)(=O)=O)c2)cn1 [Compound 112]
501 to 1000 | 100 to 500 |  |  | COc1ncc(CNC(=O)c2cc(C(=O)N3CCCC3)cc(-c3ccc(C)cc3)c2)c(N)n1 [Compound 79]
 |  | < 100 | < 100 | Cc1ccc(-c2cc(C(=O)N[C@H](CO)c3ccc(C)nc3)cc(S(C)(=O)=O)c2)cc1 [Compound 257, (S)—N-(2-Hydroxy-1-(6-methylpyridin-3-yl)ethyl)-4′-methyl-5-(methylsulfonyl)biphenyl-3-carboxamide]
 |  | < 100 | < 100 | COCCOc1cc(C(=O)NCc2ccc(C)nc2)cc(-c2ccc(C)cc2)c1 [Compound 248, 5-(2-Methoxyethoxy)-4′-methyl-N-((6-methylpyridin-3-yl)methyl)biphenyl-3-carboxamide]
100 to 500 | < 100 |  |  | Cc1ccc(-c2cc(C(=O)NCc3cnc(C)nc3)cc(C(=O)N3CCCC3)c2)nc1 [Compound 28, 3-(5-Methylpyridin-2-yl)-N-((2-methylpyrimidin-5-yl)methyl)-5-(pyrrolidine-1-carbonyl)benzamide]
100 to 500 | 100 to 500 |  |  | Cc1ccc(-c2cc(C(=O)NC(CCO)c3ccc(C(F)(F)F)nc3)cc(C(=O)N3CCCC3)c2)cc1 (centres unmarked) [Compound 83, N-(3-Hydroxy-1-(6-(trifluoromethyl)pyridin-3-yl)propyl)-4′-methyl-5-(pyrrolidine-1-carbonyl)biphenyl-3-carboxamide]
100 to 500 | 100 to 500 |  |  | Cc1ccc(-c2cc(C(=O)NCc3cnc(C)nc3)cc(C(=O)NCc3cnc(C)nc3)c2)cc1 [Compound 16, 4′-Methyl-N3,N5-bis((2-methylpyrimidin-5-yl)methyl)biphenyl-3,5-dicarboxamide]
 |  | < 100 | < 100 | CCS(=O)(=O)c1cc(C(=O)N[C@H](C)c2ccc(C)nc2)cc(-c2ccc(C)cc2)c1 [Compound 209]
> 1000 | 100 to 500 |  |  | Cc1ccc(-c2cc(C(=O)O)cc(C(=O)NCc3cnc(C)nc3)c2)cc1 [Compound 21, 4′-Methyl-5-((2-methylpyrimidin-5-yl)methylcarbamoyl)biphenyl-3-carboxylic acid]
< 100 | < 100 |  |  | Cc1ccc(-c2cc(C(=O)N[C@H](C)c3cnc(C)nc3)cc(C(=O)N3CCC3)c2)cc1 [Compound 78]
100 to 500 | 100 to 500 |  |  | Cc1ccc(-c2cc(C(=O)NCc3ccc(C(F)(F)F)nc3)cc(C(=O)N3CCCC3)c2)cc1 [Compound 47]
< 100 | < 100 |  |  | Cc1ccc(-c2cc(C(=O)N[C@H](CO)c3cnc(C)nc3)cc(C(=O)N3CCCC3)c2)cc1 [Compound 96]
> 1000 | 100 to 500 |  |  | Cc1ccc(-c2cc(S(=O)(=O)N3CCCC3)cc(C(=O)N[C@H](C)c3cnc(C)nc3)c2C)cc1 [Compound 65, (R)-2,4′-Dimethyl-N-(1-(2-methylpyrimidin-5-yl)ethyl)-5-(pyrrolidin-1-ylsulfonyl)biphenyl-3-carboxamide]
 |  | 501 to 1000 | < 100 | Cc1ccc(-c2cc(C(=O)NCc3ccc(C)nc3)cc(C(O)CN(C)CCO)c2)cc1 (centres unmarked) [Compound 368]
< 100 | 100 to 500 |  |  | CCOC(=O)c1cc(C(=O)NCc2ccc(C)nc2)cc(-c2ccc(C)cc2)c1 [Compound 88]
 |  | < 100 | < 100 | COc1ccc([C@@H](CCO)NC(=O)c2cc(-c3ccc(C)cc3)cc(S(C)(=O)=O)c2)cn1 [Compound 222]

IC50 (hP2X2/3H; [1]) [nM] | IC50 (hP2X3; [2]) [nM] | IC50 (hP2X2/3H; [3]) [nM] | IC50 (hP2X3; [4]) [nM] | SMILES
< 100 | < 100 |  |  | CCCS(=O)(=O)c1cc(C(=O)NCc2ccc(C)nc2)cc(-c2ccc(C)cc2)c1 [Compound 56]
 |  | < 100 | < 100 | Cc1ccc(-c2cc(Oc3nccs3)cc(C(=O)N[C@H](C)c3cnc(C)nc3)c2)nc1 [Compound 269, (R)-3-(5-Methylpyridin-2-yl)-N-(1-(2-methylpyrimidin-5-yl)ethyl)-5-(thiazol-2-yloxy)benzamide]
< 100 | < 100 |  |  | Cc1ccc(-c2cc(C(=O)NCc3ccc(C)nc3)cc(C(=O)N3CCCC3)c2)c(C#N)c1 [Compound 61]
 |  | < 100 | < 100 | Cc1ccc(-c2cc(Oc3nc(C)cs3)cc(C(=O)N[C@H](C)c3ccc(C)nc3)c2)c(C#N)c1 [Compound 373]
< 100 | < 100 |  |  | Cc1ccc(-c2cc(C(=O)NCc3ncc(Cl)cc3Cl)cc(C(=O)N3CCCC3)c2)cc1 [Compound 81]
 |  | < 100 | < 100 | COCC(CO)Oc1cc(C(=O)N[C@H](C)c2ccc(C)nc2)cc(-c2ccc(C)cc2)c1 (some centres unmarked) [Compound 323]
 |  | < 100 | < 100 | Cc1ccc(-c2cc(OC3CCOC3)cc(C(=O)N[C@H](C)c3cnc(C)nc3)c2)cc1 (some centres unmarked) [Compound 359]
< 100 | < 100 |  |  | CCCS(=O)(=O)c1cc(C(=O)N[C@H](C)c2cnc(C)nc2)cc(-c2ccc(C)cc2)c1 [Compound 55]
> 1000 | 100 to 500 |  |  | Cc1ccc(-c2cc(C(=O)N[C@@H](C)CO)cc(S(C)(=O)=O)c2)cc1 [Compound 3, (S)—N-(1-hydroxypronan-2-yl)-4′-methyl-5-(methylsulfonyl)biphenyl-3-carboxamide]
100 to 500 | 100 to 500 |  |  | Cc1ccc(-c2cc(C(=O)NCc3cccc(-n4cnnc4)c3)cc(C(=O)N3CCCC3)c2)cc1 [Compound 159]
 |  | < 100 | < 100 | CCS(=O)(=O)c1cc(C(=O)N[C@H](C)c2cnc(C)nc2)cc(-c2ccc(C)cc2)c1 [Compound 210]
< 100 | < 100 |  |  | COc1ccc(CNC(=O)c2cc(C(=O)N3CCCC3)cc(-c3ccc(C)cc3)c2)cn1 [Compound 152]
 |  | < 100 | 100 to 500 | Cc1ccc(-c2cc(Oc3nc(Cl)cs3)cc(C(=O)N[C@H](C)c3ccc(C)nc3)c2)cc1 [Compound 341]
501 to 1000 | < 100 |  |  | Cc1ccc(-c2cc(C(=O)N[C@@H](C)CN3CCOCC3)cc(C(=O)N3CCCC3)c2)cc1 [Compound 82]
 |  | 100 to 500 | < 100 | COCCOc1cc(C(=O)NCc2ccc(C)nc2)cc(-c2ccc(C)cc2C#N)c1 [Compound 263]
< 100 | < 100 |  |  | Cc1ccc(-c2cc(C(=O)NCc3ccc4c(c3)S(=O)(=O)CC4)cc(C(=O)N3CCCC3)c2)cc1 [Compound 72]
100 to 500 | < 100 |  |  | Cc1ccc(-c2cc(C(=O)NC(C)c3csc(C)n3)cc(C(=O)N3CCCC3)c2)nc1 (centres unmarked) [Compound 175]
